Results from patent publication US9334290B2, “Substituted tetrahydrocarbazole and carbazole carboxamide compounds” (Bristol-Myers Squibb Company, priority 2013, dated 2016).
Read-outs that look alike come from different tables or passages of the source.

Experiments:
[1] = test system: CD69 expression on B cells in human whole blood; experiment: Whole blood assay of BCR-stimulated CD69 expression on B cells; type: cell-based; conditions: BCR-stimulated, read-out: CD69 IC50 values
[2] = molecular target: human recombinant Btk (Homo sapiens (Human), UniProt Q06187); experiment: Human Recombinant Btk enzyme assay; type: biochemical
human recombinant Btk, sequence (Q06187 whole entry): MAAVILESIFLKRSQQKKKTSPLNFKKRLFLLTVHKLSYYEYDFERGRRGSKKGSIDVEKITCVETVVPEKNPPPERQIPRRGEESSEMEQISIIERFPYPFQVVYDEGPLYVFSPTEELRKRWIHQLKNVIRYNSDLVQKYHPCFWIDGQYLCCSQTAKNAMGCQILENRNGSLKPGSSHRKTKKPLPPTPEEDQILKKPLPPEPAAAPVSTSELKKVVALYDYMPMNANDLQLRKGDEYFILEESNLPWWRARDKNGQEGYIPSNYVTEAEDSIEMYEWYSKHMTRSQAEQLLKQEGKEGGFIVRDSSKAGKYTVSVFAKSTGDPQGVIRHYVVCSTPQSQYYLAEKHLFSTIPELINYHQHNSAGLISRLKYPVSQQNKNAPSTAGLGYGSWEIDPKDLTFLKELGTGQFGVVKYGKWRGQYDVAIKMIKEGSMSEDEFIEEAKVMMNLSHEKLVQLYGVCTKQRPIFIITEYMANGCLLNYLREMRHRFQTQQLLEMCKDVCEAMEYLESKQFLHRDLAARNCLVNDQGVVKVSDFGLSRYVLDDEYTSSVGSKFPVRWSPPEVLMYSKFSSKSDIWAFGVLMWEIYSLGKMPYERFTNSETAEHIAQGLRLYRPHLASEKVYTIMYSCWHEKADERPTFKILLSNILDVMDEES

[3] = molecular target: Jak2 tyrosine kinase (Homo sapiens (Human), UniProt O60674); experiment: Jak2 tyrosine kinase assay; type: biochemical
Jak2 tyrosine kinase, sequence (O60674 whole entry): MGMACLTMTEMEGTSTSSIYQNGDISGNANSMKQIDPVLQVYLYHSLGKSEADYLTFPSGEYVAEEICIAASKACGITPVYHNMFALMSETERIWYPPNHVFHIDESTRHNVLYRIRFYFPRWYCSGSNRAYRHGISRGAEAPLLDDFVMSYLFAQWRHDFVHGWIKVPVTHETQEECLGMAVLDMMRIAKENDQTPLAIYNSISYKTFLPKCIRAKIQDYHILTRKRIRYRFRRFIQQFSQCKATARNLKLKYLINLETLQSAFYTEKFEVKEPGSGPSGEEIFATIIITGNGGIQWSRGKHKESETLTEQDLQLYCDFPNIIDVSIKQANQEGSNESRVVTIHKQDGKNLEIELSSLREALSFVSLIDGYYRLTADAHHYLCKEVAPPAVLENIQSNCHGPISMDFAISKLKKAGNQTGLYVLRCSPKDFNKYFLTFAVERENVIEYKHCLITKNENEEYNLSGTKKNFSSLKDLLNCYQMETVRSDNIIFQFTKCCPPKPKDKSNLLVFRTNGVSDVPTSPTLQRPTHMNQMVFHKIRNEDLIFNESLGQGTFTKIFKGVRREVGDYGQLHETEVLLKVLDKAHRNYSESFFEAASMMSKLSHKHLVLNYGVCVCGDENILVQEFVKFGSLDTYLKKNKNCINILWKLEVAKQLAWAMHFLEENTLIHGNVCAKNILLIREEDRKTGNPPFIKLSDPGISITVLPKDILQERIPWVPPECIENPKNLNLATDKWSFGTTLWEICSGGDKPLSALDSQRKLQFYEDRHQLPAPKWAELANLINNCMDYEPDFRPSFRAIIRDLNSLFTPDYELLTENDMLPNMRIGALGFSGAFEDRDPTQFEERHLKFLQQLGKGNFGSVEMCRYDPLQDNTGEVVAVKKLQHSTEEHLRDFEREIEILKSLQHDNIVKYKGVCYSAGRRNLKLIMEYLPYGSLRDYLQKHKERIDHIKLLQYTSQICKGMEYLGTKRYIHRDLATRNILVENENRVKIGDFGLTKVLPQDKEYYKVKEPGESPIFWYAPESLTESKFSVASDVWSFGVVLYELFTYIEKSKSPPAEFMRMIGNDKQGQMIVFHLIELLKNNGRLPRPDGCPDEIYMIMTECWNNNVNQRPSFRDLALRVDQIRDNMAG

SMILES	IC50 [1] [nM]	IC50 ([2]; read-out: Btk IC50 value) [nM]	IC50 [3] [nM]	Ratio of Jak2/Btk IC50 values ([3]; selectivity of Btk over Jak2)	IC50 ([1]; Homo sapiens, B-cell) [nM]	IC50 ([2]; human recombinant Btk 1 nM, ATP 20 μM, read-out: Btk IC50) [nM]	Ratio of Jak2/Btk IC50 values ([3]; Jak2 IC50 divided by Btk IC50, larger value = more selective for Btk)
Cc1c(-c2c(Cl)cc(C(N)=O)c3[nH]c4cc(C(C)(C)O)ccc4c23)cccc1-n1c(=O)[nH]c2c(F)cccc2c1=O (single isomer, unassigned) [Example 14]		1.2			20		
Cc1c(-c2c(C#N)cc(C(N)=O)c3[nH]c4cc(C(C)(C)O)ccc4c23)cccc1-n1c(=O)c2cccc(F)c2n(C)c1=O (single isomer, unassigned) [Example 16]	120	0.27	1900				
Cc1c(-c2c(F)cc(C(N)=O)c3[nH]c4cc(C(C)(C)O)ccc4c23)cccc1-n1c(=O)cc2c(Cl)cccn2c1=O (single isomer, unassigned) [Example 30]		0.22			64		
Cc1c(-c2c(Cl)cc(C(N)=O)c3[nH]c4cc(C(C)(C)O)ccc4c23)cccc1-n1c(=O)cc2c(F)cccn2c1=O (single isomer, unassigned) [Example 35]		0.25	800	3200	31		
Cc1c(-c2c(Cl)cc(C(N)=O)c3[nH]c4cc(C(C)(C)O)ccc4c23)cccc1-n1c(=O)cc2sccn2c1=O (single isomer, unassigned) [Example 38]	53	0.34	300	880			
Cc1c(-c2c(Cl)cc(C(N)=O)c3[nH]c4cc(C(C)(C)O)ccc4c23)cccc1-n1c(=O)cc2sccn2c1=O (single isomer, unassigned) [Example 39]	130	0.31	370	1200			
Cc1c(-c2c(F)cc(C(N)=O)c3[nH]c4cc(C(C)(C)O)ccc4c23)cccc1-n1c(=O)cc2c(F)cccn2c1=O (single isomer, unassigned) [Example 40]		0.46	830	1800	19		
Cc1c(-c2c(Cl)cc(C(N)=O)c3[nH]c4c(c23)CC[C@H](C(C)(C)O)C4)cccc1-n1c(=O)[nH]c2c(F)cc(F)cc2c1=O (single isomer, unassigned) [Example 57]		0.25	270	1100			
Cc1c(-c2c(F)cc(C(N)=O)c3[nH]c4c(c23)CC[C@H](C(C)(C)O)C4)cccc1-n1c(=O)cc2c(F)cccn2c1=O (single isomer, unassigned) [Example 68]		0.56	350	630			
Cc1nc(C(N)=O)c2[nH]c3cc(C(C)(C)O)ccc3c2c1-c1cccc(-n2cnc3ccccc3c2=O)c1C [Comparative Example 76, 7-(2-Hydroxypropan-2-yl)-3-methyl-4-(2-methyl-3-(4-oxoquinazolin-3(4H)-yl)phenyl)-9H-pyrido[3,4-b]indole-1-carboxamide, reference compound]		6.9	200	29		6.9	29
Cc1c(-c2c(Cl)cc(C(N)=O)c3[nH]c4cc(C(C)(C)O)ccc4c23)cccc1-n1c(=O)cc2c(F)cccn2c1=O [Example 34, 3-Chloro-4-(3-(5-fluoro-1,3-dioxo-1H-pyrido[1,2-c]pyrimidin-2(3H)-yl)-2-methylphenyl)-7-(2-hydroxypropan-2-yl)-9H-carbazole-1-carboxamide]		0.85	370	440	98		
Cc1c(-c2c(F)cc(C(N)=O)c3[nH]c4cc(CCO)ccc4c23)cccc1-n1c(=O)cc2c(F)cccn2c1=O [Example 70]		0.59	550	930			

The remaining molecules from weak to strong by IC50 ([2]; read-out: Btk IC50 value), led by results:

IC50 [1] [nM]	IC50 ([2]; read-out: Btk IC50 value) [nM]	IC50 [3] [nM]	Ratio of Jak2/Btk IC50 values ([3]; selectivity of Btk over Jak2)	IC50 ([1]; Homo sapiens, B-cell) [nM]	IC50 ([2]; human recombinant Btk 1 nM, ATP 20 μM, read-out: Btk IC50) [nM]	Ratio of Jak2/Btk IC50 values ([3]; Jak2 IC50 divided by Btk IC50, larger value = more selective for Btk)	SMILES
	2.9			140			Cc1c(-c2c(Cl)cc(C(N)=O)c3[nH]c4cc(C(C)(C)O)ccc4c23)cccc1-n1c(=O)[nH]c2c(F)cccc2c1=O [Example 13, 3-Chloro-4-(3-(8-fluoro-2,4-dioxo-1,2-dihydroquinazolin-3(4H)-yl)-2-methylphenyl)-7-(2-hydroxypropan-2-yl)-9H-carbazole-1-carboxamide]
150	2.2	> 2000					Cc1c(-c2c(F)cc(C(N)=O)c3[nH]c4c(c23)CC[C@@H](C(C)(C)O)C4)cccc1-n1c(=O)c2cccc(F)c2n(C)c1=O (atropisomer, axis not shown) [Example 27, 6-Fluoro-5-(R)-(3-(S)-(8-fluoro-1-methyl-2,4-dioxo-1,2-dihydroquinazolin-3(4H)-yl)-2-methylphenyl)-2-(R)-(2-hydroxypropan-2-yl)-2,3,4,9-tetrahydro-1H-carbazole-8-carboxamide]
	2.1	> 2000	>950	170			COc1ccc2c(=O)n(-c3cccc(-c4c(Cl)cc(C(N)=O)c5[nH]c6cc(C(C)(C)O)ccc6c45)c3C)c(=O)n(C)c2c1 (single isomer, unassigned) [Example 5]
100	1.1	1500	1400				COc1ccc2c(=O)n(-c3cccc(-c4c(Cl)cc(C(N)=O)c5[nH]c6cc(C(C)(C)O)ccc6c45)c3C)c(=O)n(C)c2c1 (single isomer, unassigned) [Example 6]
	1	2400	2400	170			Cc1c(-c2c(C#N)cc(C(N)=O)c3[nH]c4cc(C(C)(C)O)ccc4c23)cccc1-n1c(=O)c2cccc(F)c2n(C)c1=O (single isomer, unassigned) [Example 15]
	0.91	630	690				COc1cccn2c(=O)n(-c3cccc(-c4c(Cl)cc(C(N)=O)c5[nH]c6cc(C(C)(C)O)ccc6c45)c3C)c(=O)cc12 [Example 37, 3-Chloro-7-(2-hydroxypropan-2-yl)-4-(3-(5-methoxy-1,3-dioxo-1H-pyrido[1,2-c]pyrimidin-2(3H)-yl)-2-methylphenyl)-9H-carbazole-1-carboxamide]
150	0.84	9500	11000				Cc1c(-c2c(F)cc(C(N)=O)c3[nH]c4c(c23)CC[C@H](C(C)(C)O)C4)cccc1-n1c(=O)cc2c(F)cccn2c1=O (single isomer, unassigned) [Example 69]
	0.54	32000	59000				Cc1c(-c2c(F)cc(C(N)=O)c3[nH]c4c(c23)CC[C@H](C(C)(C)O)C4)cccc1-n1c(=O)c2cccc(F)c2n(C)c1=O (atropisomer, axis not shown) [Example 28, 6-Fluoro-5-(R)-(3-(S)-(8-fluoro-1-methyl-2,4-dioxo-1,2-dihydroquinazolin-3(4H)-yl)-2-methylphenyl)-2-(S)-(2-hydroxypropan-2-yl)-2,3,4,9-tetrahydro-1H-carbazole-8-carboxamide]
	0.45	11000	24000				Cc1c(-c2c(F)cc(C(N)=O)c3[nH]c4c(c23)CC[C@H](C(C)(C)O)C4)cccc1-n1c(=O)[nH]c2c(Cl)cccc2c1=O (single isomer, unassigned) [Example 63]
	0.41	> 2000	>4900				[2H]C([2H])([2H])n1c(=O)n(-c2cccc(-c3c(F)cc(C(N)=O)c4[nH]c5c(c34)CC[C@H](C(C)(C)O)C5)c2C)c(=O)c2cccc(F)c21 (single isomer, unassigned) [Example 62]
28	0.28	450	1600				Cc1c(-c2c(Cl)cc(C(N)=O)c3[nH]c4cc(C(C)(C)O)ccc4c23)cccc1-n1c(=O)cc2c(F)cccn2c1=O (single isomer, unassigned) [Example 36]
22	0.2	800	4000				Cc1c(-c2c(F)cc(C(N)=O)c3[nH]c4cc(C(C)(C)O)ccc4c23)cccc1-n1c(=O)cc2c(F)cccn2c1=O (single isomer, unassigned) [Example 41]
37	0.19						Cc1c(-c2c(F)cc(C(N)=O)c3[nH]c4cc(C(C)(C)O)ccc4c23)cccc1-n1c(=O)cc2c(Cl)cccn2c1=O (single isomer, unassigned) [Example 31]
